One molecule from PMC13195669, “GPR3 Ligands Discovered through Combined Virtual and Conformational Biosensor-Based Screening” (Journal of the American Chemical Society, 2026) can be followed below.

The term EC50 denotes the concentration that produces a half-maximal response.

The test concerns the target T1, GPR3 (Homo sapiens, UniProt P46089).
T1 construct: host or cells: HEK293A, transient
The experiment in a line: Gs heterotrimer dissociation biosensor (Gs-CASE) in HEK293A cells cotransfected with GPR3. In kind it is cell-based. The following applies: HEK293A transiently transfected with Gs-CASE and GPR3; read-out: EC50 of GPR3-dependent BRET increase, Gs dissociation biosensor. The source says:
To further delineate the pharmacological properties of 33, we evaluated its activity in signaling assays downstream of GPR3. […] We also investigated whether 33 blocks the activity of previously validated GPR3 ligands–the agonist DPI and the inverse agonist AF64394 (Chart )–in a cAMP assay. […] The differential effect between OEA and oleamide may reflect differences in their conformational and/or positional flexibility within the GPR3 binding pocket. This difference is supported by MD simulations of oleamide in GPR3 and by a comparison of oleic acid binding poses in the highly similar pockets of GPR3 and GPR6. , […]
Cells expressing the conformational GPCR biosensors were grown for 24 h (stable cells) or 48 h (transiently transfected cells) in white 96-well plates and washed with 100 µl of HBSS. […] Three baseline BRET reads were recorded and averaged prior to the addition of serial dilutions of ligands or veh icle control and subsequent BRET reads. […] BRE T donor emission was quantified with a 470/80 nm monochromator. […] Experiments were carried out using a CLARIOstar plate reader.
FRET- and BRET-based measurements of cAMP levels and Gs dissociation/reassociation Transfected cells grown in black 96-well plates were washed twice with 100 µl of HBSS 48 h after transfection and incubated with HBSS. […] FRET donor emission was quantified with a 480/10 nm filter. […]
On the technique in general: BRET reads energy transfer from a luciferase to a nearby fluorophore.

T1 sequence (P46089 whole entry): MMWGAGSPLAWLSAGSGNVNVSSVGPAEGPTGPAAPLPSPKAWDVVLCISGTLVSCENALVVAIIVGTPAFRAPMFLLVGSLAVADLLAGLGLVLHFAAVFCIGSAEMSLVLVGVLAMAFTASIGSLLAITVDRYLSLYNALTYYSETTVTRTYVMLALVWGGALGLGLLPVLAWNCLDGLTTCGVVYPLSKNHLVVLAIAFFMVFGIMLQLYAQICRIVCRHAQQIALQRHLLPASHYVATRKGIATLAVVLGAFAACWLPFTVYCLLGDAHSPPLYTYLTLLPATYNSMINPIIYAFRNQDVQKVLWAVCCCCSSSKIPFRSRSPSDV

For `N=c1n(Cc2ccccc2)c2ccccc2n1CC1CC1` [compound 33], the EC50 was 249 nM.
